Data: ChEMBL document CHEMBL1201862, “PubChem BioAssay data set” (2004)
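Values below derive from 48-hour exposures of cells grown in 96-well plates, with endpoints linearly interpolated between the two concentrations bracketing the appropriate inhibition level. At the GI50, growth is halved.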 Calls of active or inactive are those of the source. Rule as the data show it: active = GI50 up to about 1.1 µM and inactive = higher.

How the values were obtained:
Experiment in all cases: DTP human tumour cell line panel, 48 h
LXFL 529 = test system: LXFL 529
OVCAR-3 = test system: OVCAR-3
TK-10 = test system: TK-10
OVCAR-8 = test system: OVCAR-8
UACC-62 = test system: UACC-62
MOLT-4 = test system: MOLT-4
CCRF-CEM = test system: CCRF-CEM
K562 = test system: K562
IGROV-1 = test system: IGROV-1
OVCAR-5 = test system: OVCAR-5
SNB-78 = test system: SNB-78
CAKI-1 = test system: CAKI-1
HOP-62 = test system: HOP-62
DLD-1 = test system: DLD-1
SK-MEL-2 = test system: SK-MEL-2
SW-620 = test system: SW-620
HCT-15 = test system: HCT-15
SF-539 = test system: SF-539
SNB-19 = test system: SNB-19
SNB-75 = test system: SNB-75
HOP-92 = test system: HOP-92
NCI-H226 = test system: NCI-H226
A549 = test system: A549
EKVX = test system: EKVX
SK-OV-3 = test system: SK-OV-3
DMS-273 = test system: DMS-273
HT-29 = test system: HT-29
A498 = test system: A498
NCI-H522 = test system: NCI-H522
NCI-H460 = test system: NCI-H460
SF-295 = test system: SF-295
DMS-114 = test system: DMS-114
XF498 = test system: XF498
UACC-257 = test system: UACC-257
KM-20L2 = test system: KM-20L2
SR = test system: SR
RPMI-8226 = test system: RPMI-8226
HL-60 = test system: HL-60
Malme-3M = test system: Malme-3M
M14 = test system: M14
KM12 = test system: KM12
HOP-18 = test system: HOP-18
U-251 = test system: U-251
M19-MEL = test system: M19-MEL
UO-31 = test system: UO-31
OVCAR-4 = test system: OVCAR-4
RXF 393 = test system: RXF 393
LOX IMVI = test system: LOX IMVI
786-0 = test system: 786-0
SF-268 = test system: SF-268
COLO 205 = test system: COLO 205
SN12C = test system: SN12C
SK-MEL-5 = test system: SK-MEL-5
HCT-116 = test system: HCT-116
NCI-H23 = test system: NCI-H23
NCI/ADR-RES = test system: NCI/ADR-RES
SK-MEL-28 = test system: SK-MEL-28
HCC 2998 = test system: HCC 2998
MCF7 = test system: MCF7

For `CCc1ccc(Nc2cc(=O)[nH]c(=S)n2C)cc1`, the GI50 (LXFL 529) was > 100 µM (inactive), the GI50 (OVCAR-3) was > 100 µM (inactive) and the GI50 (TK-10) was > 100 µM (inactive). For the same compound, the GI50 (OVCAR-8) was > 100 µM (inactive), the GI50 (UACC-62) was > 100 µM (inactive) and the GI50 (MOLT-4) was > 100 µM (inactive). For the same compound, the GI50 (CCRF-CEM) was > 100 µM (inactive), the GI50 (K562) was > 100 µM (inactive) and the GI50 (IGROV-1) was > 100 µM (inactive). The GI50 (OVCAR-5) was > 100 µM (inactive), the GI50 (SNB-78) was > 100 µM (inactive) and the GI50 (CAKI-1) was > 100 µM (inactive). For the same compound, the GI50 (HOP-62) was > 100 µM (inactive), the GI50 (DLD-1) was > 100 µM (inactive) and the GI50 (SK-MEL-2) was > 100 µM (inactive). The GI50 (SW-620) was > 100 µM (inactive), the GI50 (HCT-15) was greater than 100 µM and the GI50 (SF-539) was > 100 µM (inactive). The GI50 (SNB-19) was > 100 µM (inactive), the GI50 (SNB-75) was 46.3 µM (inactive) and the GI50 (HOP-92) was > 100 µM (inactive). The GI50 (NCI-H226) was > 100 µM (inactive), the GI50 (A549) was > 100 µM (inactive) and the GI50 (EKVX) was 88.3 µM (inactive). For the same compound, the GI50 (SK-OV-3) was > 100 µM (inactive), the GI50 (DMS-273) was > 100 µM (inactive) and the GI50 (HT-29) was > 100 µM (inactive). The GI50 (A498) was > 100 µM (inactive), the GI50 (NCI-H522) was > 100 µM (inactive) and the GI50 (NCI-H460) was > 100 µM (inactive). For the same compound, the GI50 (SF-295) was > 100 µM (inactive), the GI50 (DMS-114) was > 100 µM (inactive) and the GI50 (XF498) was > 100 µM (inactive). For the same compound, the GI50 (UACC-257) was > 100 µM (inactive), the GI50 (KM-20L2) was > 100 µM (inactive) and the GI50 (SR) was > 100 µM (inactive). The GI50 (RPMI-8226) was > 100 µM (inactive), the GI50 (HL-60) was > 100 µM (inactive) and the GI50 (Malme-3M) was > 100 µM (inactive). The GI50 (M14) was > 100 µM (inactive), the GI50 (KM12) was > 100 µM (inactive) and the GI50 (HOP-18) was > 100 µM (inactive). The GI50 (U-251) was > 100 µM (inactive), the GI50 (M19-MEL) was > 100 µM (inactive) and the GI50 (UO-31) was > 100 µM (inactive). The GI50 (OVCAR-4) was > 100 µM (inactive), the GI50 (RXF 393) was > 100 µM (inactive) and the GI50 (LOX IMVI) was > 100 µM (inactive). The GI50 (786-0) was > 100 µM (inactive), the GI50 (SF-268) was > 100 µM (inactive) and the GI50 (COLO 205) was > 100 µM (inactive). For the same compound, the GI50 (SN12C) was > 100 µM (inactive), the GI50 (SK-MEL-5) was > 100 µM (inactive) and the GI50 (HCT-116) was > 100 µM (inactive). The GI50 (NCI-H23) was > 100 µM (inactive).

For `Nc1cc(S(=O)(=O)O)cc2cc(S(=O)(=O)O)c(/N=N/c3ccc(-c4ccc(/N=N/c5c(S(=O)(=O)O)cc6cc(S(=O)(=O)O)cc(N)c6c5O)cc4)cc3)c(O)c12`, the GI50 (OVCAR-3) was > 100 µM (inactive), the GI50 (OVCAR-8) was > 100 µM (inactive) and the GI50 (MOLT-4) was > 100 µM (inactive). For the same compound, the GI50 (CCRF-CEM) was > 100 µM (inactive), the GI50 (K562) was > 100 µM (inactive) and the GI50 (IGROV-1) was > 100 µM (inactive). For the same compound, the GI50 (OVCAR-5) was > 100 µM (inactive), the GI50 (SNB-78) was > 100 µM (inactive) and the GI50 (HOP-62) was > 100 µM (inactive). For the same compound, the GI50 (DLD-1) was > 100 µM (inactive), the GI50 (SK-MEL-2) was > 100 µM (inactive) and the GI50 (SW-620) was > 100 µM (inactive). For the same compound, the GI50 (HCT-15) was greater than 100 µM, the GI50 (SF-539) was > 100 µM (inactive) and the GI50 (SNB-19) was > 100 µM (inactive). For the same compound, the GI50 (SNB-75) was > 100 µM (inactive), the GI50 (NCI/ADR-RES) was > 100 µM (inactive) and the GI50 (HOP-92) was > 71.9 µM (inactive). The GI50 (SK-MEL-28) was > 100 µM (inactive), the GI50 (NCI-H226) was > 100 µM (inactive) and the GI50 (HCC 2998) was > 100 µM (inactive). For the same compound, the GI50 (A549) was > 100 µM (inactive), the GI50 (MCF7) was > 100 µM (inactive) and the GI50 (EKVX) was > 100 µM (inactive). The GI50 (SK-OV-3) was > 100 µM (inactive), the GI50 (DMS-273) was > 100 µM (inactive) and the GI50 (HT-29) was > 100 µM (inactive). For the same compound, the GI50 (A498) was > 100 µM (inactive), the GI50 (NCI-H522) was > 100 µM (inactive) and the GI50 (NCI-H460) was > 100 µM (inactive). For the same compound, the GI50 (SF-295) was > 100 µM (inactive), the GI50 (DMS-114) was > 100 µM (inactive) and the GI50 (XF498) was > 100 µM (inactive). For the same compound, the GI50 (UACC-257) was > 100 µM (inactive), the GI50 (KM-20L2) was > 100 µM (inactive) and the GI50 (RPMI-8226) was > 100 µM (inactive). The GI50 (HL-60) was > 100 µM (inactive), the GI50 (Malme-3M) was > 100 µM (inactive) and the GI50 (KM12) was > 100 µM (inactive). The GI50 (HOP-18) was > 100 µM (inactive), the GI50 (U-251) was > 100 µM (inactive) and the GI50 (M19-MEL) was > 100 µM (inactive). For the same compound, the GI50 (UO-31) was > 100 µM (inactive), the GI50 (OVCAR-4) was > 100 µM (inactive) and the GI50 (RXF 393) was > 69.5 µM (inactive). The GI50 (LOX IMVI) was > 100 µM (inactive), the GI50 (SF-268) was > 100 µM (inactive) and the GI50 (COLO 205) was > 100 µM (inactive). For the same compound, the GI50 (SN12C) was > 100 µM (inactive), the GI50 (SK-MEL-5) was > 100 µM (inactive) and the GI50 (HCT-116) was > 100 µM (inactive). For the same compound, the GI50 (NCI-H23) was > 100 µM (inactive).
